Patent publication US20230365542A1, “Selective Agonists of 5-HT2A Receptor and Methods of Use” (Yale University, priority 2020, published 2023)
pEC50, pKi: −log10 of the molar value. Where two headings read alike, the source gives them in different places.

Columns and labels:
5-HT2CR [1] = biological target: T1, 5-HT2CR (Homo sapiens, UniProt P28335); assay: Calcium flux assay (FLIPR, Fluo-4), 5-HT2CR stable cell line; format: cell-based; conditions: for pEC50: read-out: 5-HT2CR EC50; for 5-HT2CR Rmax ± S.E.M: value in parentheses
T1 sequence (P28335 33-458): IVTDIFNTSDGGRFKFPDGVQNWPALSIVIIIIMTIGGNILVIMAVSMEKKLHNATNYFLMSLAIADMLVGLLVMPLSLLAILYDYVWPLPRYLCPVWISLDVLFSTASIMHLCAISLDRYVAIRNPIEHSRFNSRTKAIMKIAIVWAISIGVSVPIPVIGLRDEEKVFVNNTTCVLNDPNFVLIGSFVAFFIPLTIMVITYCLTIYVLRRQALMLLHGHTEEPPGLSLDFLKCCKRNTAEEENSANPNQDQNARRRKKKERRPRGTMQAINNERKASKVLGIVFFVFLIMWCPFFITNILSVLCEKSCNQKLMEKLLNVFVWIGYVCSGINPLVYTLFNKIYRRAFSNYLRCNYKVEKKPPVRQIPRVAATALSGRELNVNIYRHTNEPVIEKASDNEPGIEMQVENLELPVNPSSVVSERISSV
Protocol: (§1) Stable cell lines for 5-HT2AR, 5-HT2BR and 5-HT2CR generated using the Flp-In 293 T-Rex Tetracycline inducible system (Invitrogen). Tetracycline-induced cells were seeded in 384-well poly-L-lysine plates at a density of 10,000 cells/well in DMEM containing 1% dialyzed FBS at least 16-24 hr before the calcium flux assay. On the day of the assay, the cells were incubated (20 ul/well) for 1 hr at 37° C. with Fluo-4 Direct dye (Invitrogen) reconstituted in FLIPR buffer (1×HBSS, 2.5 mM probenecid, and 20 mM HEPES, pH 7.4). After dye loading, cells were placed in a FLIPR^TETRA fluorescence imaging plate reader (Molecular Dynamics). Drug dilutions were prepared at 3× final concentration in drug buffer (1×HBSS, 20 mM HEPES, 0.1% BSA, 0.01% ascorbic acid, pH 7.4) and aliquoted into 384-well plates and placed in the FLIPR^TETRA for drug stimulation. The fluidics module and plate reader of the FLIPR^TETRA were programmed to read baseline fluorescence for 10s (1 read/s), then 10 ul of drug/well was added and read for 5 min (1 read/s). Fluorescence in each well was normalized to the average of the first 10 reads (i.e., baseline fluorescence). Then, the maximum-fold increase, which occurred within the first 60 s after drug addition, was determined and fold over baseline was plotted as a function of drug concentration. Data were normalized to % 5-HT stimulation and analyzed using “log(agonist) vs. response” in GraphPad Prism 9.0.

5-HT2AR [2] = biological target: T2, 5-HT2AR (Homo sapiens, UniProt P28223); assay: 5-HT2AR binding affinity (Ki), Table 8; conditions: for pKi: read-out: 5-HT2AR Ki; for Ki: bracketed value below Ki, read-out: 5-HT2AR pKi ± S.E.M (converted)
T2 construct: expressed in transfected cells; host or cells: Flp-In 293 T-Rex (tetracycline inducible)

5-HT2AR [3] = biological target: T2, 5-HT2AR; assay: Calcium flux assay (FLIPR, Fluo-4), 5-HT2AR stable cell line; format: cell-based; conditions: for EC50: bracketed value below EC50, read-out: 5-HT2AR pEC50 ± S.E.M (converted); for 5-HT2AR Rmax ± S.E.M: value in parentheses; for pEC50: read-out: 5-HT2AR EC50
Protocol: as §1

5-HT2BR [4] = biological target: T3, 5-HT2BR (Homo sapiens, UniProt P41595); assay: 5-HT2BR binding affinity (Ki), Table 8; conditions: for pKi: read-out: 5-HT2BR Ki; for Ki: bracketed value below Ki, read-out: 5-HT2BR pKi ± S.E.M (converted)
T3 construct: expressed in transfected cells; host or cells: Flp-In 293 T-Rex (tetracycline inducible)

5-HT2CR [5] = biological target: T1, 5-HT2CR; assay: 5-HT2CR binding affinity (Ki), Table 8; conditions: for pKi: read-out: 5-HT2CR Ki; for Ki: bracketed value below Ki, read-out: 5-HT2CR pKi ± S.E.M (converted)
5-HT2BR [6] = biological target: T3, 5-HT2BR; assay: Calcium flux assay (FLIPR, Fluo-4), 5-HT2BR stable cell line; format: cell-based; conditions: for pEC50: read-out: 5-HT2BR EC50; for 5-HT2BR Rmax ± S.E.M: value in parentheses; for EC50: bracketed value below EC50, read-out: 5-HT2BR pEC50 ± S.E.M (converted)
Protocol: Stable cell lines for 5-HT2AR, 5-HT2BR and 5-HT2CR generated using the Flp-In 293 T-Rex Tetracycline inducible system (Invitrogen). Tetracycline-induced cells were seeded in 384-well poly-L-lysine plates at a density of 10,000 cells/well in DMEM containing 1% dialyzed FBS at least 16-24 hr before the calcium flux assay. On the day of the assay, the cells were incubated (20 ul/well) for 1 hr at 37° C. with Fluo-4 Direct dye (Invitrogen) reconstituted in FLIPR buffer (1×HBSS, 2.5 mM probenecid, and 20 mM HEPES, pH 7.4). After dye loading, cells were placed in a FLIPR^TETRA fluorescence imaging plate reader ([…]). Drug dilutions were prepared at 3× final concentration in drug buffer (1×HBSS, 20 mM HEPES, 0.1% BSA, 0.01% ascorbic acid, pH 7.4) and aliquoted into 384-well plates and placed in the FLIPR^TETRA for drug stimulation. The fluidics module and plate reader of the FLIPR^TETRA were programmed to read baseline fluorescence for 10s (1 read/s), then 10 ul of drug/well was added and read for 5 min (1 read/s). Fluorescence in each well was normalized to the average of the first 10 reads (i.e., baseline fluorescence). Then, the maximum-fold increase, which occurred within the first 60 s after drug addition, was determined and fold over baseline was plotted as a function of drug concentration. Data were normalized to % 5-HT stimulation and analyzed using “log(agonist) vs. response” in GraphPad Prism 9.0.

T2 sequence (P28223 whole entry): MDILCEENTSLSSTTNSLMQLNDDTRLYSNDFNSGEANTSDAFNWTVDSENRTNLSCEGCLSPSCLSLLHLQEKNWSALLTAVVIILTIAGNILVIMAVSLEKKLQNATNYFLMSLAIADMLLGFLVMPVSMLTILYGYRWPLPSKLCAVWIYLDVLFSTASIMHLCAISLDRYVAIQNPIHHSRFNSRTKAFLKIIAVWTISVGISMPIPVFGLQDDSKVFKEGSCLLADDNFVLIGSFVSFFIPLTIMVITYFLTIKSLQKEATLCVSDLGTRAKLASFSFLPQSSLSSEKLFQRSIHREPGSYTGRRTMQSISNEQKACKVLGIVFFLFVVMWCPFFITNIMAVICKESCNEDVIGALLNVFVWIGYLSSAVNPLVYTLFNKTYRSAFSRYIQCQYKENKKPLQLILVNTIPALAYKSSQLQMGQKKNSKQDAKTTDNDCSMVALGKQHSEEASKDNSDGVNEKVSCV
T3 sequence (P41595 whole entry): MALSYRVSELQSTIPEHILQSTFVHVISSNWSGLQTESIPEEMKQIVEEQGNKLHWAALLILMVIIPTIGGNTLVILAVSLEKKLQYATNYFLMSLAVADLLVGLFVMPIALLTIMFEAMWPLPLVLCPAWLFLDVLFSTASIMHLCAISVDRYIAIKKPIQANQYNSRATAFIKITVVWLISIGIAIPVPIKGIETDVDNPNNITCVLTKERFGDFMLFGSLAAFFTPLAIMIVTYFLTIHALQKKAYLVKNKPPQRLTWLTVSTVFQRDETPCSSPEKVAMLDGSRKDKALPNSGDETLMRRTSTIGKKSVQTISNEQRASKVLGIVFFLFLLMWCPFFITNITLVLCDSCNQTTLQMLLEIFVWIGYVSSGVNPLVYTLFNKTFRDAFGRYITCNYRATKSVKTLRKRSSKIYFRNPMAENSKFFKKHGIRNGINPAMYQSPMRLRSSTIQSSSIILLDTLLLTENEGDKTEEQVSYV

| Compound | 5-HT2CR EC50 (5-HT2CR [1]) | pKi (5-HT2AR [2]) | 5-HT2AR EC50 (5-HT2AR [3]) | pKi (5-HT2BR [4]) | pKi (5-HT2CR [5]) | pEC50 (5-HT2BR [6]) | 5-HT2BR Rmax ± S.E.M (5-HT2BR [6]) | EC50 (5-HT2CR [1]; bracketed value below EC50, read-out: 5-HT2CR pEC50 ± S.E.M (converted)) [nM] | pEC50 (5-HT2CR [1]) | 5-HT2CR Rmax ± S.E.M (5-HT2CR [1]) | Ki (5-HT2AR [2]) [nM] | EC50 (5-HT2AR [3]) [nM] | 5-HT2AR Rmax ± S.E.M (5-HT2AR [3]) | Ki (5-HT2BR [4]) [nM] | Ki (5-HT2CR [5]) [nM] | pEC50 (5-HT2AR [3]) | 5-HT2BR EC50 (5-HT2BR [6]) | EC50 (5-HT2BR [6]) [nM] |
| --- | --- | --- | --- | --- | --- | --- | --- | --- | --- | --- | --- | --- | --- | --- | --- | --- | --- | --- |
| C[C@H]1C=C(c2c[nH]c3ncccc23)CN(CC2CC2)C1 [compound 46, (S)-3-(1-(cyclopropylmethyl)-5-methyl-1,2,5,6-tetrahydropyridin-3-yl)-1H-pyrrolo[2,3-b]pyridine] | antagonist | 5.61 | antagonist | 5.67 | 6.11 | 5.93 | (43.8% | – | – | – | – | – | – | – | – | – | – | – |
| C1=C(c2c[nH]c3ncccc23)CNCC1 [compound 49, 3-(1,2,5,6-tetrahydropyridin-3-yl)-1H-pyrrolo[2,3-b]pyridine] | – | – | – | – | – | 6.20 | (34.8% | 832 | 6.09 | (45.9% | 398 | 151 | (43.9% | 257 | 288 | – | – | – |
| c1cnc2[nH]cc(C3CCCNC3)c2c1 (single isomer, unassigned) [compound 51, 3-(piperidin-3-yl)-1H-pyrrolo[2,3-b]pyridine] | antagonist | 5.56 | – | 6.30 | 6.32 | – | – | – | – | – | – | – | (18.2% | – | – | 5.38 | antagonist | – |
| C[C@H]1C=C(c2c[nH]c3ncccc23)CN(C)C1 [compound 34, (S)-3-(1,5-dimethyl-1,2,5,6-tetrahydropyridin-3-yl)-1H-pyrrolo[2,3-b]pyridine] | antagonist | 5.82 | – | 6.19 | 6.12 | – | – | – | – | – | – | – | (7.1% | – | 741 | 5.94 | antagonist | – |
| C[C@@H]1C=C(c2c[nH]c3ncccc23)CN(CC2CC2)C1 [compound 45, (R)-3-(1-(cyclopropylmethyl)-5-methyl-1,2,5,6-tetrahydropyridin-3-yl)-1H-pyrrolo[2,3-b]pyridine] | antagonist | 5.53 | – | < 5.00 | 5.36 | – | – | – | – | – | 2880 | 457 | (25.0% | – | – | 6.35 | antagonist | – |
| CCCCN1CC(c2c[nH]c3ncccc23)=C[C@H](C)C1 [Compound 22, 3-(1-butyl-5-methyl-1,2,5,6-tetrahydropyridin-3-yl)-1H-pyrrolo[2,3-b]pyridine] | antagonist | 5.28 | – | 5.71 | 5.15 | – | – | – | – | – | – | – | (23.8% | – | 7410 | 5.65 | antagonist | – |
| Cc1ncc(CCN2CC(c3c[nH]c4ncccc34)=C[C@@H](C)C2)cn1 [compound 40, (R)-3-(5-methyl-1-(2-(2-methylpyrimidin-5-yl)ethyl)-1,2,5,6-tetrahydropyridin-3-yl)-1H-pyrrolo[2,3-b]pyridine] | antagonist | – | antagonist | 5.39 | 6.08 | 5.42 | (54.5% | – | – | – | 398 | – | – | 3980 | – | – | – | – |
| Cc1ncc(CCN2CC(c3c[nH]c4ncccc34)=C[C@H](C)C2)cn1 [compound 41, (S)-3-(5-methyl-1-(2-(2-methylpyrimidin-5-yl)ethyl)-1,2,5,6-tetrahydropyridin-3-yl)-1H-pyrrolo[2,3-b]pyridine] | antagonist | 7.60 | antagonist | 6.09 | 7.52 | – | – | – | – | – | 25.7 | – | – | – | 28.8 | – | antagonist | – |
| c1cnc2[nH]cc(C3CCCNC3)c2c1 (single isomer, unassigned) [compound 50, 3-(piperidin-3-yl)-1H-pyrrolo[2,3-b]pyridine] | – | 5.28 | – | 6.21 | 5.56 | 6.17 | (47.0% | – | < 5.00 | – | – | – | (65.1% | – | – | 5.93 | – | – |
| CCCCCN1CC(c2cncc(Cl)c2)=C[C@H](C)C1 [Compound 10, 5′-chloro-5-methyl-1-pentyl-1,2,5,6-tetrahydro-3,3′-bipyridine] | – | 5.15 | – | – | 5.78 | – | (88.9% | – | < 5.00 | – | – | 331 | (68.6% | 5.01 | – | – | – | 24.5 |
| CCCN1CC(c2cncc(Cl)c2)=C[C@H](C)C1 [Compound 16, 5′-Chloro-5-methyl-1-propyl-1,2,5,6-tetrahydro-3,3′-bipyridine] | – | 5.14 | – | – | 5.19 | – | (74.9% | – | 5.17 | (34.4% | – | 1050 | (48.7% | 13.2 | 6310 | 5.97 | – | 20 |
| C[C@@H]1C=C(c2c[nH]c3ncccc23)CN(Cc2cnco2)C1 [compound 47, (R)-5-((3-methyl-5-(1H-pyrrolo[2,3-b]pyridin-3-yl)-3,6-dihydropyridin-1(2H)-yl)methyl)oxazole] | – | 5.14 | – | < 5.00 | < 5.00 | 6.03 | (75.8% | – | < 5.00 | – | – | 977 | (68.3% | – | – | 6.00 | – | – |
| C[C@@H]1C=C(c2c[nH]c3ncccc23)CNC1 [compound 38, (R)-3-(5-methyl-1,2,5,6-tetrahydropyridin-3-yl)-1H-pyrrolo[2,3-b]pyridine] | – | 6.17 | – | – | – | – | (82.9% | – | – | (75.0% | – | – | (90.1% | 295 | – | – | – | – |
